For the test, the target named is NAMPT (Homo sapiens, UniProt P43490). The test can be described thus: NAMPT enzyme activity assay coupled with NMNAT1 and ADH (NADH fluorescence). Conditions: AUC of dose-response curve (0.1, 0.3, 1, 3, 10 μM) relative to AUC of NAT (NAT = 1); 1 μM NAMPT, 200 μM NAM.
NAMPT, sequence (P43490 whole entry, species assumed): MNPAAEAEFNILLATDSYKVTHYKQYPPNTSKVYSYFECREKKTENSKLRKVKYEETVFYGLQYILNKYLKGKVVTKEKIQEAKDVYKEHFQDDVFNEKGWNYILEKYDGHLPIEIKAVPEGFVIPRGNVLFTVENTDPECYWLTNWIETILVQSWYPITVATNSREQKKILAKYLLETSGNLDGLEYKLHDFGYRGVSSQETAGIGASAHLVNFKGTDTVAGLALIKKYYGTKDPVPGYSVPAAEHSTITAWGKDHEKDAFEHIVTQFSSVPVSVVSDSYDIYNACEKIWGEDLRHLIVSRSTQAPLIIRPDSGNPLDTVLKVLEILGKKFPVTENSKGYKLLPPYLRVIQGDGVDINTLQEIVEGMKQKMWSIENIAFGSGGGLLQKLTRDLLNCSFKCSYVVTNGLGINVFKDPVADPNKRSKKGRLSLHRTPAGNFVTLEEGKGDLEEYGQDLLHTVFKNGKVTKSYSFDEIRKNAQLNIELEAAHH
Protocol: The NAMPT enzyme activity was assayed by a method coupled with the three enzymes: NAMPT, NMNAT1 and alcohol dehydrogenase (ADH). NAMPT synthesizes NMN from NAM and PRPP, NMNAT1 synthesizes NAD from NMN produced in the first step, and ADH converts NAD into detectable fluorescent NADH. […] The reaction was initiated by adding 200 μM nicotinamide (NAM) and mixing gently. The enzyme activity of NAMPT was expressed as the concentration of NADH generated per minute (the molar value was equal to NAD). The relative enzyme activity of NAMPT in each compound-treated group was normalized by the value of the DMSO-treated group, and a dose-response curve was drawn to evaluate the effect of individual compounds on NAMPT enzyme activity. The area under the dose-response curve (AUC, area under curve) was then calculated for individual compound and compared to the AUC of NAT, so that the obtained relative value quantitative Eauc represented the enzyme activation activity of each compound, and the specific calculation formula was shown in FIG. 3.
Turning to `COc1cc(NC(=O)COc2ccccc2C(C)(C)C)ccc1O` [Compound 44, 2-(2-(tert-butyl)phenoxy)-N-(4-hydroxyl-3-methoxyphenyl)acetamide], the “Relative activation of NAMPT activity” value is recorded as −0.1512.
The same measure for `CC(C)(C)c1ccccc1OCC(=O)Nc1ccc(O)cn1` [Compound 49, 2-(2-(tert-butyl)phenoxy)-N-(5-hydroxypyridin-2-yl)acetamide]: −0.0947.
As for `Cc1ccc(NC(=O)COc2ccccc2C(C)(C)C)cc1` [Compound 10, 2-(2-(tert-butyl)phenoxy)-N-(p-tolyl)acetamide], the figure is −0.1608; as for `CC(C)(C)c1ccccc1OCC(=O)Nc1ccc(O)c(Cl)c1` [Compound 42, 2-(2-(tert-butyl)phenoxy)-N-(3-chloro-4-hydroxyphenyl)acetamide], −0.1833.
As for `CC(C)(C)c1ccccc1OCC(=O)Nc1ccc(F)cc1` [Compound 9, 2-(2-(tert-butyl)phenoxy)-N-(4-fluorophenyl)acetamide], the figure is −0.2123.
`CC(C)(C)c1ccccc1OCC(=O)Nc1ccc(O)cc1C(=O)O` [Compound 35, 2-(2-(2-(tert-butyl)phenoxy)acetamido)-5-hydroxybenzoic acid]: the “Relative activation of NAMPT activity” value is reported as −0.0889.
As for `CC(C)(C)OC(=O)Nc1ccc(NC(=O)COc2ccccc2C(C)(C)C)cc1` [Compound 29, tert-butyl (4-(2-(2-(tert-butyl)phenoxy)acetamido)phenyl)carbamate], the figure is −0.1978; as for `CC(C)(C)c1ccccc1OCC(=O)Nc1ccc(S(N)(=O)=O)cc1` [Compound 26, 2-(2-(tert-butyl)phenoxy)-N-(4-sulfamoylphenyl)acetamide], −0.2346; as for `CC(C)(C)c1ccccc1OCC(=O)Nc1ccc(C(=O)O)cc1` [Compound 33, 4-(2-(2-(tert-butyl)phenoxy)acetamido)benzoic acid], −0.1619.
As to `CC(C)(C)c1ccccc1OCC(=O)Nc1ccccc1O` [Compound 4, 2-(2-(tert-butyl)phenoxy)-N-(2-hydroxyphenyl)acetamide], the “Relative activation of NAMPT activity” value is given as −0.1833.
As to `CC(C)(C)c1ccccc1OCC(=O)Nc1ccc(-c2ccccc2)cc1` [Compound 12], the “Relative activation of NAMPT activity” value is recorded as −0.0947.
In the case of `CCOC(=O)c1ccc(NC(=O)COc2ccccc2C(C)(C)C)cc1` [Compound 6, ethyl 4-(2-(2-(tert-butyl)phenoxy)acetamido) benzoate], the “Relative activation of NAMPT activity” value was −0.1512.
The same measure for `CC(C)(C)c1ccccc1OCC(=O)Nc1ccc(O)c(O)c1` [Compound 37, 2-(2-(tert-butyl)phenoxy)-N-(3,4-dihydroxyphenyl)acetamide]: −0.1366.
The same measure for `CC(C)(C)c1ccccc1OCC(=O)Nc1ccc(O)cc1C(F)(F)F` [Compound 38, 2-(2-(tert-butyl)phenoxy)-N-(4-hydroxy-2-(trifluoromethyl)phenyl)acetamide]: −0.12; for `COc1ccc(NC(=O)COc2ccccc2C(C)(C)C)cc1` [Compound 5, 2-(2-(tert-butyl)phenoxy)-N-(4-methoxyphenyl)acetamide]: −0.168.
The same measure for `COC(=O)c1cc(NC(=O)COc2ccccc2C(C)(C)C)ccc1O` [Compound 45, 5-(2-(2-(tert-butyl)phenoxy)acetamido)-2-hydroxybenzoic acid methyl ester]: −0.3625.
Regarding `CC(C)(C)c1ccccc1OCC(=O)Nc1ccc(Oc2ccccc2)cc1` [Compound 11, 2-(2-(tert-butyl)phenoxy)-N-(4-phenoxyphenyl)acetamide], the “Relative activation of NAMPT activity” value is listed as −0.1409.
For `CC(=O)c1cc(NC(=O)COc2ccccc2C(C)(C)C)ccc1O` [Compound 46, N-(3-acetyl-4-hydroxyphenyl)-2-(2-(tert-butyl)phenoxy)acetamide], the “Relative activation of NAMPT activity” value is on record as −0.1777.

These data come from patent US20240051975A1 (TSINGHUA UNIVERSITY, priority 2020, published 2024).
